Measurements from the supplement of paper PMC10307832.

Assays:
Assay in all cases: relative viability (nuclei count vs DMSO), 5 days (fraction); higher = more cells survive
LOU-NH91 = system: LOU-NH91
Procedure, shortened: (§1)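 Each reported value is a median over duplicate plates. It expresses relative viability: treated-well nuclei count divided by vehicle-well nuclei count. Lung cancer cell lines in 1536-well plates were dosed by pin tool a day after seeding, alone with one drug or with a fixed anchor-drug dose plus five library-drug doses (not always all listed) in √10 steps, and nuclei were counted after 5 days.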

A-427 = system: A-427
Procedure, shortened: as §1

H3255 = system: H3255
Procedure, shortened: as §1

NCI-H2170 = system: NCI-H2170
Procedure, shortened: as §1

ChaGo-K-1 = system: ChaGo-K-1
Procedure, shortened: as §1

PC-3 [JPC-3] = system: PC-3 [JPC-3]
Procedure, shortened: as §1

NCI-H1755 = system: NCI-H1755
Procedure, shortened: as §1

LK-2 = system: LK-2
Procedure, shortened: as §1

HCC-366 = system: HCC-366
Procedure, shortened: as §1

NCI-H1944 = system: NCI-H1944
Procedure, shortened: as §1

SK-MES-1 = system: SK-MES-1
Procedure, shortened: as §1

NCI-H596 = system: NCI-H596
Procedure, shortened: as §1

EKVX = system: EKVX
Procedure, shortened: as §1

NCI-H1734 = system: NCI-H1734
Procedure, shortened: as §1

NCI-H1792 = system: NCI-H1792
Procedure, shortened: as §1

EMC-BAC-2 = system: EMC-BAC-2
Procedure, shortened: as §1

NCI-H441 = system: NCI-H441
Procedure, shortened: as §1

NCI-H23 = system: NCI-H23
Procedure, shortened: as §1

COR-L 105 = system: COR-L 105
Procedure, shortened: as §1

NCI-H1975 = system: NCI-H1975
Procedure, shortened: as §1

NCI-H1666 = system: NCI-H1666
Procedure, shortened: as §1

NCI-H520 = system: NCI-H520
Procedure, shortened: as §1

## Clc1ccc(Nc2nnc(Cc3ccncc3)c3ccccc23)cc1 [Vatalanib] + CC1(C)CCC(c2ccc(Cl)cc2)=C(CN2CCN(c3ccc(C(=O)NS(=O)(=O)c4ccc(N[C@H](CCN5CCOCC5)CSc5ccccc5)c(S(=O)(=O)C(F)(F)F)c4)cc3)CC2)C1 [Navitoclax] (partner 0.5 µM)
LOU-NH91; first compound 0.04 µM
  relative viability: 0.703
LOU-NH91; first compound 0.1265 µM
  relative viability: 0.558
LOU-NH91; first compound 0.4 µM
  relative viability: 0.61
LOU-NH91; first compound 1.265 µM
  relative viability: 0.612
LOU-NH91; first compound 4 µM
  relative viability: 0.61
A-427; first compound 0.04 µM
  relative viability: 0.998
A-427; first compound 0.1265 µM
  relative viability: 0.92
A-427; first compound 0.4 µM
  relative viability: 0.867
A-427; first compound 1.265 µM
  relative viability: 0.794
A-427; first compound 4 µM
  relative viability: 0.98
H3255; first compound 0.04 µM
  relative viability: 0.608
H3255; first compound 0.1265 µM
  relative viability: 0.469
H3255; first compound 0.4 µM
  relative viability: 0.458
H3255; first compound 1.265 µM
  relative viability: 0.444
H3255; first compound 4 µM
  relative viability: 0.521
NCI-H2170; first compound 0.04 µM
  relative viability: 0.584
NCI-H2170; first compound 0.1265 µM
  relative viability: 0.674
NCI-H2170; first compound 0.4 µM
  relative viability: 0.621
NCI-H2170; first compound 1.265 µM
  relative viability: 0.51
NCI-H2170; first compound 4 µM
  relative viability: 0.589
ChaGo-K-1; first compound 0.04 µM
  relative viability: 0.565
ChaGo-K-1; first compound 0.1265 µM
  relative viability: 0.94
ChaGo-K-1; first compound 1.265 µM
  relative viability: 0.934
ChaGo-K-1; first compound 4 µM
  relative viability: 1.16
PC-3 [JPC-3]; first compound 0.04 µM
  relative viability: 0.725
PC-3 [JPC-3]; first compound 0.1265 µM
  relative viability: 0.832
PC-3 [JPC-3]; first compound 0.4 µM
  relative viability: 0.848
PC-3 [JPC-3]; first compound 1.265 µM
  relative viability: 0.739
PC-3 [JPC-3]; first compound 4 µM
  relative viability: 0.757
NCI-H1755; first compound 0.04 µM
  relative viability: 1.06
NCI-H1755; first compound 0.1265 µM
  relative viability: 0.972
NCI-H1755; first compound 0.4 µM
  relative viability: 1.03
NCI-H1755; first compound 1.265 µM
  relative viability: 0.821
NCI-H1755; first compound 4 µM
  relative viability: 0.993
LK-2; first compound 0.04 µM
  relative viability: 0.883
LK-2; first compound 0.1265 µM
  relative viability: 0.824
LK-2; first compound 1.265 µM
  relative viability: 0.955
LK-2; first compound 4 µM
  relative viability: 0.807
HCC-366; first compound 0.04 µM
  relative viability: 1.09
HCC-366; first compound 0.1265 µM
  relative viability: 0.816
HCC-366; first compound 0.4 µM
  relative viability: 1.25
HCC-366; first compound 1.265 µM
  relative viability: 1.03
HCC-366; first compound 4 µM
  relative viability: 0.991
NCI-H1944; first compound 0.04 µM
  relative viability: 1.01
NCI-H1944; first compound 0.1265 µM
  relative viability: 1.02
NCI-H1944; first compound 0.4 µM
  relative viability: 1.06
NCI-H1944; first compound 1.265 µM
  relative viability: 1.08
NCI-H1944; first compound 4 µM
  relative viability: 1.06
SK-MES-1; first compound 0.04 µM
  relative viability: 1.2
SK-MES-1; first compound 0.1265 µM
  relative viability: 1.21
SK-MES-1; first compound 0.4 µM
  relative viability: 1.28
SK-MES-1; first compound 1.265 µM
  relative viability: 1.01
SK-MES-1; first compound 4 µM
  relative viability: 1.15
NCI-H596; first compound 0.04 µM
  relative viability: 0.972
NCI-H596; first compound 0.1265 µM
  relative viability: 1
NCI-H596; first compound 0.4 µM
  relative viability: 1.08
NCI-H596; first compound 1.265 µM
  relative viability: 0.767
NCI-H596; first compound 4 µM
  relative viability: 0.986
EKVX; first compound 0.04 µM
  relative viability: 0.924
EKVX; first compound 0.1265 µM
  relative viability: 0.928
EKVX; first compound 0.4 µM
  relative viability: 1
EKVX; first compound 1.265 µM
  relative viability: 0.839
EKVX; first compound 4 µM
  relative viability: 0.891
NCI-H1734; first compound 0.04 µM
  relative viability: 0.921
NCI-H1734; first compound 0.1265 µM
  relative viability: 0.719
NCI-H1734; first compound 0.4 µM
  relative viability: 0.927
NCI-H1734; first compound 1.265 µM
  relative viability: 0.823
NCI-H1734; first compound 4 µM
  relative viability: 0.822
NCI-H1792; first compound 0.04 µM
  relative viability: 0.648
NCI-H1792; first compound 0.1265 µM
  relative viability: 0.611
NCI-H1792; first compound 0.4 µM
  relative viability: 0.688
NCI-H1792; first compound 1.265 µM
  relative viability: 0.678
NCI-H1792; first compound 4 µM
  relative viability: 0.624
EMC-BAC-2; first compound 0.04 µM
  relative viability: 1.18
EMC-BAC-2; first compound 0.1265 µM
  relative viability: 1.12
EMC-BAC-2; first compound 0.4 µM
  relative viability: 1.23
EMC-BAC-2; first compound 1.265 µM
  relative viability: 1.15
EMC-BAC-2; first compound 4 µM
  relative viability: 1.14
NCI-H441; first compound 0.04 µM
  relative viability: 0.886
NCI-H441; first compound 0.1265 µM
  relative viability: 0.685
NCI-H441; first compound 0.4 µM
  relative viability: 0.469
NCI-H441; first compound 1.265 µM
  relative viability: 0.755
NCI-H441; first compound 4 µM
  relative viability: 0.54
NCI-H23; first compound 0.04 µM
  relative viability: 0.772
NCI-H23; first compound 0.1265 µM
  relative viability: 0.699
NCI-H23; first compound 0.4 µM
  relative viability: 0.841
NCI-H23; first compound 1.265 µM
  relative viability: 0.745
NCI-H23; first compound 4 µM
  relative viability: 0.825
COR-L 105; first compound 0.04 µM
  relative viability: 1.47
COR-L 105; first compound 0.1265 µM
  relative viability: 0.928
COR-L 105; first compound 0.4 µM
  relative viability: 0.692
COR-L 105; first compound 1.265 µM
  relative viability: 0.766
COR-L 105; first compound 4 µM
  relative viability: 0.715
NCI-H1975; first compound 0.04 µM
  relative viability: 1.09
NCI-H1975; first compound 0.1265 µM
  relative viability: 1
NCI-H1975; first compound 0.4 µM
  relative viability: 1.17
NCI-H1975; first compound 1.265 µM
  relative viability: 0.945
NCI-H1975; first compound 4 µM
  relative viability: 0.815
NCI-H1666; first compound 0.04 µM
  relative viability: 0.958
NCI-H1666; first compound 0.1265 µM
  relative viability: 0.93
NCI-H1666; first compound 0.4 µM
  relative viability: 0.829
NCI-H1666; first compound 1.265 µM
  relative viability: 0.963
NCI-H1666; first compound 4 µM
  relative viability: 0.845
NCI-H520; first compound 0.04 µM
  relative viability: 0.974
NCI-H520; first compound 0.1265 µM
  relative viability: 1.02
NCI-H520; first compound 0.4 µM
  relative viability: 1.1
NCI-H520; first compound 1.265 µM
  relative viability: 0.907
NCI-H520; first compound 4 µM
  relative viability: 1.06
